pIC50: −log10 of the molar value.
Key:
Type in all cases: biochemical
ITK = molecular target: T1, ITK (Homo sapiens, UniProt Q08881); experiment: Kinase activity inhibition assay (HTRF TK Kit), selectivity
T1 construct: purchased Carna 08-181
T1 sequence (Q08881 1-620): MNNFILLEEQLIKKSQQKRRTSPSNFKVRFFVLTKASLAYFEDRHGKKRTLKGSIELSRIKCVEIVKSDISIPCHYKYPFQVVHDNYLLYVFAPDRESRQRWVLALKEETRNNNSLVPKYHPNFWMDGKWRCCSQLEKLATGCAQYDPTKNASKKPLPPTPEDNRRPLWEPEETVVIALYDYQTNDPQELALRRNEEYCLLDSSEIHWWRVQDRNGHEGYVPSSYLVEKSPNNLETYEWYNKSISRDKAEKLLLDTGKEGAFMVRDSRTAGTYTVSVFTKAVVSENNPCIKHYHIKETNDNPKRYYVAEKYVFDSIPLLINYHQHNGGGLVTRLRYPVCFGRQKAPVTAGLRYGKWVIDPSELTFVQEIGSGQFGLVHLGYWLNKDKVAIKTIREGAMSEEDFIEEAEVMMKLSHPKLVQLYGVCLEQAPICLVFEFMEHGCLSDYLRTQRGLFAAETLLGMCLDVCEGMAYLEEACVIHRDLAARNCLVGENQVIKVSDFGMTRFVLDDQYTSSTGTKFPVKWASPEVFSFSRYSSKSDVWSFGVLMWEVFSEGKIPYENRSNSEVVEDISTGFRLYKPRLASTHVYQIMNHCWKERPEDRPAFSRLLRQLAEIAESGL
From the text: (§1) In this assay, the HTRF TK Kit (Catalog No. 62TK0PEC) provided by Cisbio was used to detect the inhibitory activity of compounds on BTK kinase, BTK T474I kinase and BTK C481 S kinase and the selectivity of compounds relative to EGFR, ITK and TEC kinases.
(§2) Reagents and consumables: BTK kinase (Invitrogen, Catalog No. PV3587), BTK C481S (Carna, Product No. 08-547), BTK T474I(SignalChem Product No. B10-12HH), ITK (Cama, Product No. 08-181), EGFR (Cama, Product No. 08-115), TEC (Carna, Product No. 08-182), HTRF-TK kit (Cisbio, Product No. 62TK0PEC), MgCl2 (Sigma, Product No. M1028), MnCl2 (Sigma, Product No. M1787), DTT (Sigma, Product No. D0632), ATP (Sigma, Product No. A7699-1g), DMSO (Sigma, Product No. D2650), 384-well plate (PE, Product No. 6008280).
(§3) The entire operation steps were carried out on ice, and the total reaction volume was 10µL. A compound (4µL), substrate and ATP (4µL), and kinase (2µL) were added in sequence to a 384-well plate, and the plate was shaken for 30 seconds. The mixture was reacted at room temperature for an appropriate time, and then the detection reagent was added. The resulting mixture was reacted at room temperature for 1 hour, and then the plate was assayed with a microplate reader. The specific steps were as follows: • a) a 1 × kinase buffer solution required for the kinase assay was calculated according to the amount of the test compound, and prepared as needed; • b) 2.5 × working concentration of a compound was prepared, 100-fold gradient concentration solutions of a compound were diluted by 40 × to the desired concentration, respectively, mixed well, and added to each well at 4 µL per well; • c) 5 × working concentration of the substrate and ATP were prepared, mixed in a ratio of 1:1 before being added to the 384-well plate, and added to each well at 4 µL per well; • d) 5 × working concentration of a kinase was prepared, 2 µL of which was added to each well; • e) the plate was shaken on a microplate shaker for 30 seconds, sealed with a sealing membrane, and the mixture was reacted at room temperature for an appropriate time; • f) 4 × working concentration of streptavidin XL-665 and TK antibody-cryptate compound were prepared, mixed in a ratio of 1:1 before being added to the 384-well plate, and added to each well at 10 µL per well; • g) the mixture was reacted at room temperature for 1 hour, and then the plate was read; • h) the wells with only substrate, ATP and 1% DMSO added but no kinase were blank control wells, and the wells with only substrate, ATP, 1% DMSO and kinase were positive control wells.
(§4) Readings: The values of 620 nm (cryptate) and 665 nm (XL665) were read with a BioTek Synerg Neo2 microplate reader, the ratio of 665/620 for each well was calculated, and the data were exported.
(§5) Data analysis: IC50 was calculated using GraphPad Prism 7.0 software.
(§6) The IC50 (half-maximal inhibitory concentration) of the compound was obtained using the following nonlinear fitting formula: Y = Bottom + (Top−Bottom)/(1+10^(∧)((LogIC50−X)*HillSlope)) [formula] • X: Log value of the compound concentration • Y: Inhibition rate (% inhibition) • Top: Maximum response • Bottom: Baseline response • HillSlope: Slope of the curve
(§7) The formula for calculating kinase inhibition rate (inhibition rate %) was: [formula]

EGFR = molecular target: T2, EGFR (Homo sapiens, UniProt P00533); experiment: as above
T2 construct: purchased Carna 08-115
From the text: as §1, §2, §3, §4, §5, §6, §7

TEC = molecular target: T3, TEC (Homo sapiens, UniProt P42680); experiment: as above
T3 construct: purchased Carna 08-182
T3 sequence (P42680 1-631): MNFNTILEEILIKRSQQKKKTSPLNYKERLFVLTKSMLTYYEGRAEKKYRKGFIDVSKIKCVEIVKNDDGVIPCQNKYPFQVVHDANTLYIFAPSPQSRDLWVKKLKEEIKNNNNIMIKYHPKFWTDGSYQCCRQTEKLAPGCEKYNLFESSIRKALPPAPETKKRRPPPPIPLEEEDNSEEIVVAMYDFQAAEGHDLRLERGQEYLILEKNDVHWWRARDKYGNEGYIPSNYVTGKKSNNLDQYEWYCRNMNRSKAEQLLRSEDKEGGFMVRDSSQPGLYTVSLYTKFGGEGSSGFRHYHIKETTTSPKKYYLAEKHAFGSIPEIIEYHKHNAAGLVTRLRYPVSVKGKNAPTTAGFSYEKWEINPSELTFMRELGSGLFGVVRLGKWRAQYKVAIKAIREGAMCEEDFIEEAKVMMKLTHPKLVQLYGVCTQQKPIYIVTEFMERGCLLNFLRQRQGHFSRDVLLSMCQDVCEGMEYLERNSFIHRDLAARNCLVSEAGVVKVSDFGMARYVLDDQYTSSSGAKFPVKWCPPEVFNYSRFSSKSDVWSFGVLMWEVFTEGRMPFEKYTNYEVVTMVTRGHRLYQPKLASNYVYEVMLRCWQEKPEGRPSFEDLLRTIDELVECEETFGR
From the text: as §1, §2, §3, §4, §5, §6, §7

BTK T474I = molecular target: T4, BTK T474I (Homo sapiens, UniProt Q06187, T474I); experiment: Kinase activity inhibition assay (HTRF TK Kit)
T4 construct: purchased SignalChem B10-12HH
From the text: as §1, §2, §3, §4, §5, §6, §7

BTK C481S = molecular target: T5, BTK C481S (Homo sapiens, UniProt Q06187, C481S); experiment: Kinase activity inhibition assay (HTRF TK Kit)
T5 construct: purchased Carna 08-547
From the text: as §1, §2, §3, §4, §5, §6, §7

BTK kinase = molecular target: T6, BTK kinase (Homo sapiens, UniProt Q06187); experiment: Kinase activity inhibition assay (HTRF TK Kit)
T6 construct: purchased Invitrogen PV3587
From the text: as §1, §2, §3, §4, §5, §6, §7

T5 sequence (Q06187 whole entry C481S): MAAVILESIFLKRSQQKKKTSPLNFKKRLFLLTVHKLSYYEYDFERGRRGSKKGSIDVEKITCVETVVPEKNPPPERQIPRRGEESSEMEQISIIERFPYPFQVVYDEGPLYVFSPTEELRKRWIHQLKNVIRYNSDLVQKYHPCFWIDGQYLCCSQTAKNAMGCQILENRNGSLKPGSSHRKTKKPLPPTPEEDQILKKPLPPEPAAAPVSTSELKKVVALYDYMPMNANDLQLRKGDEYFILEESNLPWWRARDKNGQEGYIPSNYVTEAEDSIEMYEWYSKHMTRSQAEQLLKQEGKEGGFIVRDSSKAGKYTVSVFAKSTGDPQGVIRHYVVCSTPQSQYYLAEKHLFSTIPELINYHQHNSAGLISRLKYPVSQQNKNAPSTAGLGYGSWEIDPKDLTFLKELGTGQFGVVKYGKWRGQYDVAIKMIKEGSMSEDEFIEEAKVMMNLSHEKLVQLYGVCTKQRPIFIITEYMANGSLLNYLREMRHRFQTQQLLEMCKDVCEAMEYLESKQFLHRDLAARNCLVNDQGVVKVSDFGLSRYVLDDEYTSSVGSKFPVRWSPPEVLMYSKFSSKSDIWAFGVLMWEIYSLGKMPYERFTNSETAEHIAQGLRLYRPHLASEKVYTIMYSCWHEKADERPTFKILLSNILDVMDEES
T4 sequence (Q06187 whole entry T474I): as the sequence (Q06187 whole entry C481S) above, with T474I, S481C counted along it
T2 sequence (P00533 669-1210 limits assumed): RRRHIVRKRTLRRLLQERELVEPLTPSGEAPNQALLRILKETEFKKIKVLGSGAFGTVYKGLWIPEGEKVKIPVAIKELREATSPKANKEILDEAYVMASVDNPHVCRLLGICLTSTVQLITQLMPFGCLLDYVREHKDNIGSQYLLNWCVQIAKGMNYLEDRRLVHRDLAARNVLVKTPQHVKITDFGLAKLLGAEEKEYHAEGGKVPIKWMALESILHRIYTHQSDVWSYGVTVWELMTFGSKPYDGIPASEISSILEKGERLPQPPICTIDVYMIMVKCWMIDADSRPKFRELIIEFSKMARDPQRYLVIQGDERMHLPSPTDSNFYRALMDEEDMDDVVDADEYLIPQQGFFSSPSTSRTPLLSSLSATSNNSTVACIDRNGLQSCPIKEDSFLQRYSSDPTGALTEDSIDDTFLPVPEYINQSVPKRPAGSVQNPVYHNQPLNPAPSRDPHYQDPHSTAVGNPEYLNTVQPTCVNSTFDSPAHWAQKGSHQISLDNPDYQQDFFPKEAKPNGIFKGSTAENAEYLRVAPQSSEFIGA
T6 sequence (Q06187 whole entry): as the sequence (Q06187 whole entry C481S) above, with S481C counted along it

| pIC50 (ITK) | pIC50 (EGFR) | pIC50 (TEC) | pIC50 (BTK T474I) | pIC50 (BTK C481S) | pIC50 (BTK kinase) | Compound |
| --- | --- | --- | --- | --- | --- | --- |
| < 6.30 | 6.30 to 7.30 | 6.30 to 7.30 | 6.30 to 7.30 | 8.30 to 9.00 | 8.30 to 9.00 | COc1ccc(F)cc1C(=O)NCc1ccc(-c2ncc(-c3ncc(F)cn3)c3[nH]nc(N)c23)cc1 [Example 36, N-(4-(3-amino-7-(5-fluoropyrimidin-2-yl)-1H-pyrazolo[4,3-c]pyridin-4-yl)benzyl)-5-fluoro-2-methoxybenzamide] |
| < 6.30 | 6.30 to 7.30 | 7.30 to 8.30 | 6.30 to 7.30 | ≥ 9.00 | ≥ 9.00 | COc1ccc(F)cc1C(=O)NCc1ccc(-c2ncc(-c3ccc(C)cn3)c3[nH]nc(N)c23)cc1 [Example 37, N-(4-(3-amino-7-(5-methylpyridin-2-yl)-1H-pyrazolo[4,3-c]pyridin-4-yl)benzyl)-5-fluoro-2-methoxybenzamide] |
| < 6.30 | 6.30 to 7.30 | 7.30 to 8.30 | 6.30 to 7.30 | 8.30 to 9.00 | 7.30 to 8.30 | COc1ccc(F)cc1C(=O)NCc1ccc(-c2ncc(-c3ccc(Cl)cn3)c3[nH]nc(N)c23)cc1 [Example 38, N-(4-(3-amino-7-(5-chloropyridin-2-yl)-1H-pyrazolo[4,3-c]pyridin-4-yl)benzyl)-5-fluoro-2-methoxybenzamide] |
| 6.30 to 7.30 | 6.30 to 7.30 | 7.30 to 8.30 | 7.30 to 8.30 | ≥ 9.00 | ≥ 9.00 | COc1ccc(F)cc1C(=O)NCc1ccc(-c2ncc(-c3ncc(C)cn3)c3[nH]nc(N)c23)cc1 [Example 39, N-(4-(3-amino-7-(5-methylpyrimidin-2-yl)-1H-pyrazolo[4,3-c]pyridin-4-yl)benzyl)-5-fluoro-2-methoxybenzamide] |
| 6.30 to 7.30 | 6.30 to 7.30 | 7.30 to 8.30 | 7.30 to 8.30 | ≥ 9.00 | 8.30 to 9.00 | COc1ccc(F)cc1C(=O)NCc1ccc(-c2ncc(-c3ccc(OC(F)(F)F)cn3)c3[nH]nc(N)c23)cc1 [Example 41, N-(4-(3-amino-7-(5-(trifluoromethoxy)pyridin-2-yl)-1H-pyrazolo[4,3-c]pyridin-4-yl)benzyl)-5-fluoro-2-methoxybenzamide] |
| < 6.30 | < 6.30 | 6.30 to 7.30 | < 6.30 | 8.30 to 9.00 | 8.30 to 9.00 | COc1ccc(F)cc1C(=O)NCc1ccc(-c2ncc(-c3ncc(C(F)(F)F)cn3)c3[nH]nc(N)c23)cc1 [Example 42, N-(4-(3-amino-7-(5-(trifluoromethyl)pyrimidin-2-yl)-1H-pyrazolo[4,3-c]pyridin-4-yl)benzyl)-5-fluoro-2-methoxybenzamide] |
| 6.30 to 7.30 | 7.30 to 8.30 | 8.30 to 9.00 | 7.30 to 8.30 | ≥ 9.00 | ≥ 9.00 | COc1ccc(F)cc1C(=O)NCc1ccc(-c2ncc(-c3ccc(C4COC4)cn3)c3[nH]nc(N)c23)cc1 [Example 43, N-(4-(3-amino-7-(5-(oxetan-3-yl)pyridin-2-yl)-1H-pyrazolo[4,3-c]pyridin-4-yl)benzyl)-5-fluoro-2-methoxybenzamide] |
| 6.30 to 7.30 | 7.30 to 8.30 | 7.30 to 8.30 | 7.30 to 8.30 | ≥ 9.00 | ≥ 9.00 | COc1ccc(F)cc1C(=O)NCc1ccc(-c2ncc(-c3cc4ncccn4n3)c3[nH]nc(N)c23)cc1 [Example 44, N-(4-(3-amino-7-(pyrazolo[1,5-a]pyrimidin-2-yl)-1H-pyrazolo[4,3-c]pyridin-4-yl)benzyl)-5-fluoro-2-methoxybenzamide] |
| < 6.30 | 6.30 to 7.30 | 6.30 to 7.30 | < 6.30 | 7.30 to 8.30 | 7.30 to 8.30 | CCOC(=O)c1cnc2cc(-c3cnc(-c4ccc(CNC(=O)c5cc(F)ccc5OC)cc4)c4c(N)n[nH]c34)nn2c1 [Example 45, ethyl 2-(3-amino-4-(4-((5-fluoro-2-methoxybenzoylamino)methyl)phenyl)-1H-pyrazolo[4,3-c]pyridin-7-yl)pyrazolo[1,5-a]pyrimidine-6-carboxylate] |

Source: patent EP4741392A1, “1H-PYRAZOLO[4,3-C]PYRIDINE COMPOUND, AND COMPOSITION THEREOF AND USE THEREOF” (Shenzhen TargetRx Co., Ltd., priority 2023, dated 2025)
